# Experimental data as given in US20220370636A1, “NICOTINAMIDE ADENINE DINUCLEOTIDE ACTIVATOR AND USE THEREOF” (University of South Florida, priority 2021, published 2022).
# “Also recorded” adds a separate entry of the source.
# Key:
# [1] = system: C57Bl/6J wildtype hearts; experiment: Ex vivo ischemia reperfusion, post-ischemia exposure in wildtype hearts; set-up: species or system mice
# Protocol: Hearts undergoing ex vivo ischemia reperfusion protocol post-exposure with P7C3 (3 μM) were performed as defined above. Hearts were stabilized for 30 min before proceeding to the ischemic phase. Cardiac ischemia was induced by the pause in Krebs-Hanseleit buffer perfusion for 45 min. Reperfusion was induced with the induction of Krebs-Hanseleit buffer at a constant flow of ˜2.2 ml/min for 1 hour. Hearts that underwent P7C3 (3 μM) treatment received 1-hour reperfusion with P7C3 (3 μM) within the Krebs-Hanseleit buffer.
# [2] = system: C2C12 cells; experiment: Scratch (wound closure) assay in C2C12 cells; type: cell-based, mouse; conditions: for percent wound closure: 16 h, vs control cells
# Protocol: In vitro model (C2C12 skeletal muscle myoblast) of scratch assay (wound) was created by using pipette tip and recovery of cells was monitored for 16 hours after the scratch. The percent wound closure was measured by the area indicated (FIG. 5B).
# Scratch assay in C2C12 cells. C2C12 cells were seeded into either 6-well or 12-well plates and allowed to grow up to 90% confluence. Scratch or wound injury was induced by streaking the plate (2-3 streaks/well) using a 1000 μL sterilized pipette tip in each well. Treatments were performed with the vehicle or P7C3 groups within the cell culture media. Images were taken of each streak immediately after with an Echo Rebel microscope, and the cell culture plates were then placed in the incubator for 16 h. After 16 h, images were obtained at the same location of the streaks utilizing the coordinates marked. The ImageJ software (NIH, USA) was utilized to calculate the areas of the scratches at the 0 h and 16 h time point, with the area at 16 h divided by the area at 0 h to determine the percent wound closure.
# Three sets of experiments were performed with this assay to determine the percent wound closure with the P7C3 solution, the P7C3 NPs, the A01B conjugate P7C3 NPs, and the P7C3 scrambled aptamer NPs. For assessing the effects of the P7C3 solution on percent wound closure, the cells were treated with the vehicle control (DMSO) and 100 nM-2 μM P7C3. For determining the effect of P7C3 NPs, the cells were treated with the vehicle control (blank NPs) and 10 nM-1 μM P7C3 NPs. Finally, for the targeted A01B conjugated P7C3 NPs and scrambled aptamer conjugated P7C3 NPs, the cells were treated with the vehicle controls (blank aptamer conjugated NPs) and 100 nM each of both aptamers conjugated NPs.
# [3] = system: RAW264.7 cells; experiment: qRT-PCR of inflammatory genes in LPS-treated RAW264.7 cells; type: cell-based; conditions: LPS 1 μg/ml + P7C3 1 μM, 24 hours
# Protocol: FIGS. 2A and 2B show macrophage: LPS induced inflammation and recovery via P7 markers such as NF-κb, IL-1β, IL-6. […] RAW264.7 cells was treated with LPS (1 μg/ml) and P7C3 (1 μM) for 24 hours. The isolated mRNA was subjected qRT-PCR using iScript cDNA Synthesis Kit (Bio-Rad, Cat #: 1706691) and iTaq Universal SYBR Green Supermix (Bio-Rad, Cat #: 1725121) in iCycler iQ Real Time PCR Detection System (Bio-Rad). The value of 2^-ΔΔCt was calculated and expressed as a Mean±SEM (n=6). The statistical analysis was performed using two-way ANOVA with Tukey's multiple comparisons test in GraphPad Prism 8.4.3, and p≤0.05 was considered statistically significant. […]
# [4] = system: C2C12 cells; experiment: MTT cytotoxicity study in C2C12 cells; type: cell-based, mouse
# Protocol: Cytotoxicity study. The cytotoxicity of P7C3 nanoparticles (P7C3 NP), and the skeletal muscle-specific aptamer-based targeted P7C3 nanoparticles (P7C3 NP Apt) were determined using the MTT assay in C2C12 cells and was compared with the P7C3 solution, DMSO and control media. Briefly, the mouse C2C12 myoblasts were seeded at a seeding density of 10,000 cells/well in three 96-well plates (Corning, N.Y., USA) in 100 μl of growth medium, i.e., DMEM F12 supplemented with 10% FBS, and 1% P/S and were allowed to grow for 24, 48, and 72 h after an initial attachment period of 24 h, which was considered as time 0. […] The 0 nM concentration had the solvent vehicle control DMSO, in which the drugs P7C3, 7C3 NPs, and P7C3 NPs Apt were dissolved. The MTT reagent solution (1 mg/mL) was added to each well after 24, 48, and 72 h of cell proliferation and the assay was performed according to the manufacturer's protocol (Thermo Fisher Scientific CyQUANT™ MTT Cell Viability Assay kit, USA). The spectrophotometer reading was measured at 540 nm wavelength using a Synergy H1 Hybrid Multi-Mode Reader. Cell viability was calculated and plotted, considering the optical density of solvent vehicle control DMSO wells as 100% viable.
# [5] = system: db/db mice; experiment: Ex vivo myofibre contractility and force-frequency relationship of extensor digitorum longus muscle; type: in vivo
# Excerpt: Ex vivo myofibre contractility and force-frequency relationship. Animals were euthanized in compliance with University of South Florida IACUC guidelines. The extensor digitorum longus (EDL) muscles of each animal were tied with surgical silk at the proximal and distal tendons and dissected free. Muscles were immediately transferred to a customized vertical organ bath system (Aurora Scientific Inc., Canada) with the suture on the distal tendon clamped in place and that on the proximal tendon tied to a force transducer such that the muscles were positioned between two platinum wirestimulating electrodes. […] Muscles were equilibrated for 10-15 min after which, the optimal muscle length (l0) for each muscle was calculated by adjusting the length until a maximal force response to a single twitch was attained. Following determination of l0, the muscles were subjected to stimulation trains (500 ms duration) of frequencies ranging from 1-125 Hz, 1 per minute to determine the force-frequency relationship (FFR). Stimulation was delivered with a 58800 dual pulse digital stimulator (Grass Products, West Warwick, R.I., USA), and all pulses were 1 ms in duration. The peak forces of each contraction at the different stimulation frequencies were used to plot the FFR. […]
compound,measurement,setting,value
"OC(CNc1ccccc1)Cn1c2ccc(Br)cc2c2cc(Br)ccc21 (centres unmarked) [P7C3, 3,6-Dibromo-a-[(phenylamino)methyl]-9H-carbazole-9-ethanol]",overall ischemic injury (infarct),"[1]; WT hearts perfused post-ischemia with P7C3 3 μM, 60 mins reperfusion",22%
same,reduction of overall infarct size compared with reperfusion alone,"[1]; post-ischemic exposure, wildtype hearts",2.5 fold
same,percent wound closure,[2]; 10 nM,not significant
same,percent wound closure,[2]; 100 nM,not significant
same,percent wound closure,[2]; 500 nM,significantly increased
same,percent wound closure,[2]; 1 μM,significantly increased; also recorded: significantly higher
same,percent wound closure,[2]; 2 μM,significantly increased
same,gap closure at 16 hrs,"[2]; C2C12 cells, 1 μM or 100 nM for 24 hours followed by wire injury",significantly augmented
same,IL-1β expression,[3],significantly decreased
same,IL-6 expression,[3],decreased
same,IL-10 expression,[3],decreased
same,NF-κb expression,[3],significantly decreased
same,TNFα expression,[3],significantly decreased
same,cytotoxicity (MTT cell viability),"[4]; 0, 10, 500, 1000 nM, 24, 48, 72 h",not toxic
same,cell viability,"[4]; 10 nM, 72 h, vs control cells",significantly higher
same,reduced EDL force at higher frequencies seen in db-Veh,"[5]; db/db, 4 weeks",mitigated
same,absolute myofibre force frequency area under curve,"[5]; ex vivo EDL, vs db-Veh",significant increase
